# Experimental data from PMC8367944, “Phase 1 study of the ATR inhibitor berzosertib in combination with cisplatin in patients with advanced solid tumours” (British Journal of Cancer, 2021).
# pIC50: −log10 of the molar value. Entries after “also recorded” stand apart in the source; their conditions may differ. Read-outs that look alike come from different tables or passages of the source.
# Key:
# [1] = test system: patients with advanced solid tumours; assay: Phase 1 safety and tolerability: TEAEs (NCI CTCAE v4.0), DLTs, MTD/RP2D; type: in vivo
# Procedure: Part B was a single-arm, 3 + 3 dose-escalation Phase 1 study evaluating the safety, tolerability and PK of berzosertib in combination with cisplatin in patients with advanced solid tumours.
# Following screening and baseline evaluations, patients received berzosertib i.v. (90 mg/m^2; days 2 and 9) and cisplatin (40 mg/m^2; day 1), administered in 21-day cycles. Based on safety data from two concurrent studies,[14],[15] a 7- to 14-day lead-in period with single doses of berzosertib (140 mg/m^2) alone was also planned.
# For the initial dose escalation, the dose of cisplatin was held constant, while the dose of berzosertib was escalated by a maximum of 50% in each cohort. After the berzosertib dose was escalated, the dose of cisplatin could be increased in order to find the maximum-tolerated dose (MTD) of berzosertib in combination with cisplatin; the MTD was defined as the highest dose of berzosertib tolerated in combination with a cisplatin dose between 60 and 100 mg/m^2, inclusive. […] Patients received berzosertib with cisplatin until progressive disease (PD) or unacceptable toxicity.
# Safety evaluations (primary endpoint) included continuous assessment of TEAEs, which were graded using National Cancer Institute Common Terminology Criteria for Adverse Events version 4.0. […] Safety was evaluated throughout treatment and was used to inform dose-escalation decisions. […]
# ATR = test system: ATR; parameters: method as in PMID 25010037; conditions: ATR inhibitor; cited from earlier work
# [2] = Plasma and urine pharmacokinetics of berzosertib (LC-MS/MS, non-compartmental analysis); type: in vivo, human; conditions: for AUC(0-inf) / clearance / Cmax / half-life / Vd: plasma; for AUC(0-inf): read-out: AUC0–∞, mean (%CV); for clearance: read-out: CL, mean (%CV) (converted); for Cmax: read-out: Cmax, mean (%CV); for Vd: read-out: Vss, mean (%CV)
# Procedure: In cycle 1, plasma samples for PK analysis were collected both pre- and post-dose on days 2–5 (pre-dose, 0.5 h before the end of infusion, at the end of infusion, and 0.5, 1, 2, 3, 7, 23, 47, and 71 h after end of infusion) and day 9 (pre-dose). Plasma samples were also collected on day 2 of cycle 2 (pre-dose and 2 h after the end of infusion). Cumulative urine was also collected for PK assessments on days 2 and 3 of cycle 1 (pre-dose to 3, 3–7, 7–11, and 11–23 h). Berzosertib concentrations were quantified using a validated liquid chromatography tandem-mass spectrometry method and plasma PK were characterised by non-compartmental analyses using Phoenix WinNolin 6.4 (Certara USA Inc., Princeton, NJ, USA).
# The safety set was defined as all patients who received at least one dose of study drug; patients within the safety set were further classified into those who received at least one dose of the study drug in the lead-in period (lead-in safety set) and those who received at least one dose during the combination period (combination safety set). PK data were collected in the PK analysis set, defined as all enrolled patients who received at least one dose of berzosertib and provided at least one measurable post-dose sample. For efficacy analyses, the full analysis set was used, comprising all enrolled patients who had received a baseline scan, at least one dose of study drug, and had at least one post-baseline disease assessment.
# Standard non-compartmental methods were used to determine PK parameters. Continuous variables were summarised using descriptive summary statistics. Categorical variables (e.g. incidence of a TEAE) were summarised using frequency counts and percentages. TEAEs observed were summarised by system organ class and preferred term according to the Medical Dictionary for Regulatory Activities v.18.0 or higher.
# [3] = test system: patients with advanced solid tumours; conditions: on second infusion of berzosertib; idiosyncratic, no clear relationship to dose; stated as recognised, no reference given; cited from earlier work
# [4] = human, intravenous, cycle 1, day 2, berzosertib and cisplatin, berzosertib 90 mg/m^2, n = 2
# [5] = human, intravenous, cycle 1, day 2, berzosertib and cisplatin, berzosertib 140 mg/m^2, n = 8
# [6] = human, intravenous, cycle 1, day 2, berzosertib and cisplatin, berzosertib 210 mg/m^2, n = 17
# [7] = human, iv, 140 mg/m2, lead-in period, berzosertib alone, 140 mg/m^2 i.v., n = 4
structure (smiles),measurement,setting,value
CNCc1ccc(-c2cc(-c3nc(-c4ccc(S(=O)(=O)C(C)C)cc4)cnc3N)on2)cc1 [berzosertib],DLTs during the monotherapy lead-in period,"[1]; berzosertib 140 mg/m^2 alone, n = 4",no DLTs
same,"trends in laboratory results, vital signs or ECG parameters attributable to berzosertib","[1]; serum chemistry, haematology, urinalysis",no clinically meaningful trends
same,pIC50,ATR,7.72
same,dose proportionality of plasma exposure,"[2]; 90–210 mg/m^2, based on mean plasma concentrations and Cmax",approximately dose proportional
same,effect of cisplatin on berzosertib pharmacokinetics,[2]; cisplatin given 24 h before berzosertib,no apparent effect; also recorded: does not affect the PK profile
same,mean percentage of berzosertib excreted in the urine,"[2]; cumulative urine, days 2 and 3 of cycle 1",6%
same,CL renal,"[2]; human, intravenous, cumulative urine, days 2 and 3 of cycle 1, read-out: mean renal clearance (converted)",78.3 mL/min
same,AUC(0-inf),[2]; [4],2820 ng·h/mL
same,clearance,[2]; [4],1020 mL/min
same,Cmax,[2]; [4],458 ng/mL
same,half-life,"[2]; human, intravenous, cycle 1, day 2, berzosertib and cisplatin, berzosertib 90 mg/m^2, n = 2, read-out: T1/2, mean (%CV) (converted)",17 h
same,Vd,[2]; [4],1260 L
same,AUC(0-inf),[2]; [5],4870 ng·h/mL
same,clearance,[2]; [5],912 mL/min
same,Cmax,[2]; [5],854 ng/mL
same,Vd,[2]; [5],1060 L
same,AUC(0-inf),[2]; [6],6740 ng·h/mL
same,clearance,[2]; [6],1040 mL/min
same,Cmax,[2]; [6],1230 ng/mL
same,Vd,[2]; [6],1270 L
same,AUC(0-inf),[2]; [7],5670 ng·h/mL
same,clearance,[2]; [7],898 mL/min
same,Cmax,[2]; [7],652 ng/mL
same,half-life,"[2]; human, intravenous, 140 mg/m^2, berzosertib monotherapy, four patients, read-out: mean terminal elimination half-life (converted)",~17 h
same,half-life,"[2]; human, intravenous, 140 mg/m^2, plasma, cycle 1, day 2, berzosertib and cisplatin, berzosertib 140 mg/m^2, n = 8, read-out: T1/2, mean (%CV) (converted)",17.5 h
same,half-life,"[2]; human, intravenous, 210 mg/m^2, plasma, cycle 1, day 2, berzosertib and cisplatin, berzosertib 210 mg/m^2, n = 17, read-out: T1/2, mean (%CV) (converted)",17.3 h
same,half-life,"[2]; human, iv, 140 mg/m2, plasma, lead-in period, berzosertib alone, 140 mg/m^2 i.v., n = 4, read-out: T1/2, mean (%CV) (converted)",20.3 h
same,patients with acute hypersensitivity,[3],< 5%
